Data reported in patent US10111874B2, “Combination therapies for treatment of cancer” (Araxes Pharma LLC, priority 2014, dated 2018).

These molecules were tested against T1, KRAS G12C 1-169, his-tagged protein, GDP-loaded (Homo sapiens, UniProt P01116, G12C) (assay: Biochemical assay: covalent binding to KRAS G12C analyzed by mass spectrometry). Conditions: compounds 48-246, measured at 2 h.
T1 construct: KRAS G12C 1-169, his-tagged protein, GDP-loaded
Note: test concentration or dose not given here.

T1 sequence (P01116 1-169 isoform P01116-2 G12C): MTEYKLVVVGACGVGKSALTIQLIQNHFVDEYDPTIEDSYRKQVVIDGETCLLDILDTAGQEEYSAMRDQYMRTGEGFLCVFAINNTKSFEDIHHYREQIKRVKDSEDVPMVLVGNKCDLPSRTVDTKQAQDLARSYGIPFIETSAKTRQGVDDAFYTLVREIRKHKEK

Which Binding % does the source give for `C=CC(=O)N1CCN(c2ncnc3cc(-c4ccc5cn[nH]c5c4)c(Cl)cc23)CC1` [Compound I-162, 1-(4-(6-chloro-7-(1H-indazol-6-yl)quinazolin-4-yl)piperazin-1-yl)prop-2-en-1-one] here?
Its Binding % is “+ (+indicates binding activity from 5% to 25%)”.

`C=CC(=O)N1CCN(c2ncnc3cc(-c4cccc5ccc(=O)[nH]c45)c(Cl)cc23)CC1` [Compound I-240, 8-(4-(4-acryloylpiperazin-1-yl)-6-chloroquinazolin-7-yl)quinolin-2(1H)-one] was tested. Which Binding % did it give?
The Binding % was “+++ (+++indicates binding activity greater than 50% and up to 75%)”.

`C=CC(=O)N1CCN(c2ncnc3cc(Oc4ccccc4)c(Cl)cc23)CC1` [Compound I-76, 1-(4-(6-chloro-7-phenoxyquinazolin-4-yl)piperazin-1-yl)prop-2-en-1-one] was tested. Which Binding % did it give?
The Binding % was “+ (+indicates binding activity from 5% to 25%)”.

How did the Binding % turn out when `C=CC(=O)N1CCN(c2ncnc3cc(-c4ccccc4C(N)=O)c(Cl)cc23)CC1` [Compound I-98, 2-(4-(4-acryloylpiperazin-1-yl)-6-chloroquinazolin-7-yl)benzamide] was run?
The Binding % was “+ (+indicates binding activity from 5% to 25%)”.

With `C=CC(=O)N1CCN(c2ncnc3cc(-c4c(O)cccc4C(F)(F)F)c(Cl)cc23)CC1` [Compound I-233, 1-(4-(6-chloro-7-(2-hydroxy-6-(trifluoromethyl)phenyl)quinazolin-4-yl)piperazin-1-yl)prop-2-en-1-one] as the molecule, how does the Binding % read?
The Binding % was “+++ (+++indicates binding activity greater than 50% and up to 75%)”.

With `C=CC(=O)N1CCN(c2ncnc3cc(-c4ccccc4)c(CC)cc23)CC1` [Compound I-93, 1-(4-(6-ethyl-7-phenylquinazolin-4-yl)piperazin-1-yl)prop-2-en-1-one] as the molecule, how does the Binding % read?
Its Binding % is “+ (+indicates binding activity from 5% to 25%)”.

With `C=CC(=O)N1CCN(c2ncnc3cc(-c4ccccc4-c4nccs4)c(Cl)cc23)CC1` [Compound I-186, 1-(4-(6-chloro-7-(2-(thiazol-2-yl)phenyl)quinazolin-4-yl)piperazin-1-yl)prop-2-en-1-one] as the molecule, how does the Binding % read?
The Binding % was “+++ (+++indicates binding activity greater than 50% and up to 75%)”.

Which Binding % does the source give for `C#Cc1ccccc1-c1cc2ncnc(N3CCN(C(=O)C=C)CC3)c2cc1Cl` [Compound I-154, 1-(4-(6-chloro-7-(2-ethynylphenyl)quinazolin-4-yl)piperazin-1-yl)prop-2-en-1-one] here?
The Binding % was “++ (++indicates binding activity greater than 25% and up to 50%)”.

Same assay, conditions: compounds 247-342, measured at 30 min

With `C=CC(=O)N1CCN(c2nc(OCCN(C)C)nc3c(F)c(-c4c(O)cccc4F)c(Cl)cc23)CC1` [Compound 341, 1-(4-(6-chloro-2-(2-(dimethylamino)ethoxy)-8-fluoro-7-(2-fluoro-6-hydroxyphenyl)quinazolin-4-yl)piperazin-1-yl)prop-2-en-1-one] as the molecule, how does the Binding % read?
The Binding % was “++++ (++++indicates binding activity greater than 75%)”.

`C=CC(=O)N1CCN(c2nc(NC)nc3cc(-c4c(C)ccc5[nH]ncc45)c(Cl)cc23)CC1` [Compound 312, 1-(4-(6-chloro-7-(5-methyl-1H-indazol-4-yl)-2-(methylamino)quinazolin-4-yl)piperazin-1-yl)prop-2-en-1-one] was tested. Which Binding % did it give?
Its Binding % is “++++ (++++indicates binding activity greater than 75%)”.

Which Binding % does the source give for `C=CC(=O)N1CCN(c2ncnc3c(Cl)c(-c4c(OC)ccc5ccccc45)c(Cl)cc23)CC1` [Compound I-286, 1-(4-(6,8-dichloro-7-(2-methoxynaphthalen-1-yl)quinazolin-4-yl)piperazin-1-yl)prop-2-en-1-one] here?
Its Binding % is “+ (+indicates binding activity from 5% to 25%)”.

Same assay, conditions: determined at 2 hrs

For `C=CC(=O)N1CC(N2CCN(C(=O)/C=C/c3cc(C4CC4)c(Cl)cc3O)CC2)C1` [II-62, (E)-1-(4-(1-Acryloylazetidin-3-yl)piperazin-1-yl)-3-(4-chloro-5-cyclopropyl-2-hydroxyphenyl)prop-2-en-1-one], which Binding % is on record?
The Binding % was “+ (+indicates binding activity from 5% to 20%)”.

Same assay, conditions: determined at 24 hrs

`C=CC(=O)N1CC(N2CCN(C(=O)CNc3cc(O)cc(Cl)c3)CC2)C1` [II-33, 1-(3-(4-(2-(3-chloro-5-hydroxyphenylamino)-acetyl)piperazin-1-yl)azetidin-1-yl)prop-2-en-1-one] was tested. Which Binding % did it give?
Its Binding % is “+ (+indicates binding activity from 5% to 15%)”.
